Reference: patent publication US12209079B2 (GENERAL INCORPORATED ASSOCIATION PHARMA VALLEY PROJECT …, priority 2017, dated 2025)
Where a name gives a salt, the structure may show the parent alone.

Assays:
IDO in A431 cells = target: T1, IDO in A431 cells (Homo sapiens, UniProt P14902); test: IDO cell-based assay, kynurenine production in IFN-γ stimulated A431 cells; conditions: A-431, 24 h; final concentration of the compound 10 μM; rate relative to culture without compound
T1 construct: endogenous in cells; host or cells: A431 cells, IFN-γ stimulated
Protocol: A431 cells (3.0×10^5 cells/mL) suspended in a culture medium for assay (D-MEM; Wako 040-30095, 5% FBS, 50 units/mL penicillin, 50 μg/mL streptomycin, and 2 mM L-glutamine) were inoculated at 100 μL/well to a transparent 96-well flat-bottomed plate and cultured at 37° C. for 24 hours in 5% CO2. The culture medium was removed from the cells thus cultured. A tryptophan-containing culture medium (culture medium for assay supplemented with 178 μM L-tryptophan) was added at 80 μL/well, and further, a compound solution was added at 10 μL/well. The cells were preincubated for 1 hour. Then, the whole amount was brought to 100 μL/well by the addition of 10 μL/well of IFN-γ diluted into 100 ng/mL with a tryptophan-containing culture medium, and the cells were cultured for 24 hours. After the culture, absorbance was measured at 460 nm using SpectraMax MSSK (Molecular Devices, LLC) (background measurement). After the measurement, a kynurenine quantification reagent (prepared with 7% [v/v] aqueous trichloroacetic acid solution and a solution of 2% [w/v] p-dimethylbenzaldehyde in acetic acid at 2:5 [v/v]) was added at 200 μL/well and reacted for 5 minutes, followed by the measurement of absorbance at 460 nm again. The rate of kynurenine production was calculated according to the following expression. Rate of kynurenine production (%) for each compound in the case of using A431 cells={(Absorbance at 460 nm in the tryptophan-containing culture medium comprising the A431 cells and the solution of the compound of the present invention−Absorbance of the background)/(Absorbance at 460 nm in the tryptophan-containing culture medium without the addition of the compound solution−Absorbance of the background)}×100 TDO Cell-Based Assay Protocol

[1] = target: rhTDO (recombinant human TDO) (Homo sapiens, UniProt P48775); test: Enzyme assay using rhTDO (rate of kynurenine production); type: biochemical; conditions: 2 h, read-out: rhTDO-mediated kynurenine production; for remaining activity at 10 µM: final concentration of the compound 10 μM, rate relative to reaction without compound
Protocol: 4 μL of a compound solution was added to 176 μL of a rhTDO reaction solution (0.5 M potassium phosphate buffer (20 μL), 0.2 M ascorbic acid (20 μL), 0.5 mM methylene blue (4 μL), 10 mg/mL catalase (2 μL), H2O (128 μL), and rhTDO (2 μL)). The mixture was pipetted and preincubated at 37° C. for 10 minutes. Then, the whole amount was brought to 200 μL by the addition of 20 μL of a 20 mM aqueous tryptophan solution, and the mixture was pipetted again and reacted at 37° C. for 120 minutes. After the reaction, the enzymatic reaction was terminated by the addition of 40 μL of a 30% [v/v] aqueous trichloroacetic acid solution to the reaction solution. The mixture was well stirred by pipetting and heated at 50° C. for 15 minutes so that N-formylkynurenine was converted to kynurenine. The reaction solution thus heated was centrifuged (15,000 rpm, 5 min, 24° C.), and 150 μL of the supernatant was transferred to a transparent 96-well flat-bottomed plate, followed by the measurement of absorbance at 490 nm using SpectraMax M5 SK (background measurement). After the measurement, a solution of 2% [w/v] p-dimethylbenzaldehyde in acetic acid was added at 150 μL/well and reacted for 5 minutes, followed by the measurement of absorbance at 490 nm again. The rate of kynurenine production was calculated according to the following expression. Rate of kynurenine production (%) for each compound in the case of using rhTDO={(Absorbance at 490 nm in the tryptophan-containing aqueous solution comprising rhTDO and the compound of the present invention−Absorbance of the background)/(Absorbance at 490 nm in the tryptophan-containing aqueous solution without the addition of the compound solution−Absorbance of the background)}×100 IDO Cell-Based Assay Protocol

TDO in A172 cells = target: T2, TDO in A172 cells (Homo sapiens, UniProt P48775); test: TDO cell-based assay, kynurenine production in A172 cells; conditions: A 172; final concentration of the compound 10 μM; rate relative to culture without compound
T2 construct: endogenous in cells; host or cells: A172 cells
Protocol: A172 cells (3.0×10^5 cells/mL) suspended in a culture medium for assay (PRMI-1640; Wako 186-02155, 5% FBS, 50 units/mL penicillin, and 50 μg/mL streptomycin) were inoculated at 100 μL/well to a transparent 96-well flat-bottomed plate and cultured at 37° C. for 24 hours in 5% CO2. The culture medium was removed from the cells thus cultured. A culture medium for assay was added at 80 μL/well, and further, a compound solution was added at 10 μL/well. The cells were preincubated for 1 hour. Then, the whole amount was brought to 100 μL/well by the addition of 10 μL/well of a 5 mM aqueous tryptophan solution (final concentration of L-tryptophan: 524 μM), and the cells were cultured for 24 hours. After the culture, absorbance was measured at 460 nm using SpectraMax MSSK (Molecular Devices, LLC) (background measurement). After the measurement, a kynurenine quantification reagent (prepared with 7% [v/v] aqueous trichloroacetic acid solution and a solution of 2% [w/v] p-dimethylbenzaldehyde in acetic acid at 2:5 [v/v]) was added at 200 μL/well and reacted for 5 minutes, followed by the measurement of absorbance at 460 nm again. The rate of kynurenine production was calculated according to the following expression. Rate of kynurenine production (%) for each compound in the case of using A172 cells={(Absorbance at 460 nm in the tryptophan-containing culture medium comprising the A172 cells and the solution of the compound of the present invention−Absorbance of the background)/(Absorbance at 460 nm in the tryptophan-containing culture medium without the addition of the compound solution−Absorbance of the background)}×100

[2] = target: rhIDO (recombinant human IDO) (Homo sapiens, UniProt P14902); test: Enzyme assay using rhIDO (rate of kynurenine production); type: biochemical; conditions: 2 h; final concentration of the compound 10 μM; rate relative to reaction without compound; read-out: rhIDO-mediated kynurenine production
Protocol: Enzyme Assay Protocol Using rhIDO (Recombinant Human IDO)
4 μL of a compound solution was added to 176 μL of a rhIDO reaction solution (0.5 M potassium phosphate buffer (20 μL), 0.2 M ascorbic acid (20 μL), 0.5 mM methylene blue (4 μL), 10 mg/mL catalase (2 μL), H2O (128 μL), and rhIDO (2 μL)). The mixture was pipetted and preincubated at 37° C. for 10 minutes. Then, the whole amount was brought to 200 μL by the addition of 20 μL of a 2 mM aqueous tryptophan solution, and the mixture was pipetted again and reacted at 37° C. for 120 minutes. After the reaction, the enzymatic reaction was terminated by the addition of 40 μL of a 30% [v/v] aqueous trichloroacetic acid solution to the reaction solution. The mixture was well stirred by pipetting and heated at 50° C. for 15 minutes so that N-formylkynurenine was converted to kynurenine. The reaction solution thus heated was centrifuged (15,000 rpm, 5 min, 24° C.), and 150 μL of the supernatant was transferred to a transparent 96-well flat-bottomed plate, followed by the measurement of absorbance at 490 nm using SpectraMax MSSK (background measurement). After the measurement, a solution of 2% [w/v] p-dimethylbenzaldehyde in acetic acid was added at 150 μL/well and reacted for 5 minutes, followed by the measurement of absorbance at 490 nm again. The rate of kynurenine production was calculated according to the following expression. Rate of kynurenine production (%) for each compound in the case of using rhIDO={(Absorbance at 490 nm in the tryptophan-containing aqueous solution comprising rhIDO and the compound of the present invention−Absorbance of the background)/(Absorbance at 490 nm in the tryptophan-containing aqueous solution without the addition of the compound solution−Absorbance of the background)}×100 Enzyme Assay Protocol Using rhTDO (Recombinant Human TDO)

T1 sequence (P14902 whole entry): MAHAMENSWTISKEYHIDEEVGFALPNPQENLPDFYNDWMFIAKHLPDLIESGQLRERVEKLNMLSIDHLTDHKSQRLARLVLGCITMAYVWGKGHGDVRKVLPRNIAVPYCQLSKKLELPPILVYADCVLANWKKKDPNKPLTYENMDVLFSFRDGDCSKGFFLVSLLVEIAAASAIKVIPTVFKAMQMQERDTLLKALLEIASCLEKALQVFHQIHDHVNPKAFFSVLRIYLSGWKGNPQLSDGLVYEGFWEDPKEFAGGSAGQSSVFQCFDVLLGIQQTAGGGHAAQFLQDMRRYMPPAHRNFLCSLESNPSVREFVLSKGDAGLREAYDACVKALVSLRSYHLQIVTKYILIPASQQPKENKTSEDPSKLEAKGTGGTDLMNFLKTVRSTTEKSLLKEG
Sequence of rhIDO (recombinant human IDO) (P14902 whole entry): as above
Sequence of rhTDO (recombinant human TDO) (P48775 whole entry): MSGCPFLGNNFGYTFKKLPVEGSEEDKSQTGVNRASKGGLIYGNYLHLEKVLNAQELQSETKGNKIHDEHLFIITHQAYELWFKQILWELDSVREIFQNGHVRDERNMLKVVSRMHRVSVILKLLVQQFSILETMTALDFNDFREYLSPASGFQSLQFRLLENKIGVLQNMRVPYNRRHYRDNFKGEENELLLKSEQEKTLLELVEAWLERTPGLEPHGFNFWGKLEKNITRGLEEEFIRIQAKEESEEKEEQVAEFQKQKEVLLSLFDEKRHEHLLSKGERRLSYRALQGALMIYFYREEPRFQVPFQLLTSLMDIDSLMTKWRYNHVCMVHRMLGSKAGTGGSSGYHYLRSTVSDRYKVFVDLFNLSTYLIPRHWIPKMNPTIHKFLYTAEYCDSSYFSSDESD
T2 sequence (P48775 whole entry): as above

remaining activity at 3 µM ([1]; final concentration of the compound 3 μM (data with *)) [%]	SMILES	remaining activity at 10 µM (IDO in A431 cells) [%]	remaining activity at 10 µM [1] [%]	remaining activity at 10 µM (TDO in A172 cells) [%]	remaining activity at 10 µM [2] [%]
	Cc1ccc(CSC(=N)N)c(CSC(=N)N)c1 [Compound 12, (4-methyl-1,2-phenylene)bis(methylene) dicarbamimidothioate dihydrobromide]	13	10	0	20
	N=C(N)[Se]Cc1cc(Br)ccc1C(=O)NCC1CC1 [Compound 107, 5-Bromo-2-((cyclopropylmethyl)carbamoyl)benzyl carbamimidoselenoate hydrobromide]	44	103	12	97
	N#Cc1ccc(CNC(=O)c2ccccc2CSC(=N)N)cc1 [Compound 96, 2-((4-Cyanobenzyl)carbamoyl)benzyl carbamimidothioate hydrobromide]	93	26	38	71
	c1ccc(CN2CN=C(SCc3ccccc3CSC3=NCN(Cc4ccccc4)CN3)NC2)cc1 [Compound 14, 1,2-bis(((5-benzyl-1,4,5,6-tetrahydro-1,3,5-triazin-2-yl)thio)methyl)benzene]	7	31	4	52
	c1ccc(CS/C(=N/C2CCCCC2)NC2CCCCC2)c(CS/C(=N/C2CCCCC2)NC2CCCCC2)c1 [Compound 58, 1,2-Phenylenebis(methylene) (E,E)-bis(N,N′-dicyclohexylcarbamimidothioate) dihydrobromide]	1	83	9	73
	Clc1ccc(Cl)c(CN2CN=C(SCc3ccccc3CSC3=NCN(Cc4cc(Cl)ccc4Cl)CN3)NC2)c1 [Compound 18, 1,2-bis(((5-(2,5-dichlorobenzyl)-1,4,5,6-tetrahydro-1,3,5-triazin-2-yl)thio)methyl)benzene]	7	27	-1	23
	N=C(N)[Se]Cc1ccccc1C[Se]C(=N)N [Compound 108, 1,2-Phenylenebis(methylene) dicarbamimidoselenoate dihydrobromide]	5	55	41	51
	FC(F)(F)c1cccc(CCN2CN=C(SCc3ccc(Br)cc3CSC3=NCN(CCc4cccc(C(F)(F)F)c4)CN3)NC2)c1 [Compound 149, 6,6′-(((4-Bromo-1,2-phenylene)bis(methylene))bis(sulfanediyl))bis(3-(3-(trifluoromethyl)phenethyl)-1,2,3,4-tetrahydro-1,3,5-triazine)]	7	11	17	8
	N/C(=N\c1ccc(F)c(Cl)c1)SCc1cc(Br)ccc1C(=O)NCc1ccc(F)cc1 [Compound 88, 5-Bromo-2-((4-fluorobenzyl)carbamoyl)benzyl (E)-N′-(3-chloro-4-fluorophenyl)carbamimidothioate hydrobromide]	64	92	28	82
	FC(F)(F)c1ccc(CN2CN=C(SCc3ccccc3CSC3=NCN(Cc4ccc(C(F)(F)F)cc4)CN3)NC2)cc1 [Compound 42, 1,2-Bis(((5-(4-(trifluoromethyl)benzyl)-1,4,5,6-tetrahydro-1,3,5-triazin-2-yl)thio)methyl)benzene]	6	41	2	68
16	N/C(=N\c1ccc(F)cc1F)SCc1cc(Cl)c(Cl)cc1CS/C(N)=N/c1ccc(F)cc1F [Compound 63, (4,5-Dichloro-1,2-phenylene)bis(methylene) (E,E)-bis(N′-(2,4-difluorophenyl)carbamimidothioate) dihydrobromide]	2		5	0
	FC(F)(F)c1ccc(CSC2=NCN(CCc3ccc(Cl)c(Cl)c3)CN2)c(CSC2=NCN(CCc3ccc(Cl)c(Cl)c3)CN2)c1 [Compound 47, 6,6′-(((4-(Trifluoromethyl)-1,2-phenylene)bis(methylene))bis(sulfanediyl))bis(3-(3,4-dichlorophenethyl)-1,2,3,4-tetrahydro-1,3,5-triazine)]	15	53	45	16
